From ChEMBL document CHEMBL1201862, “PubChem BioAssay data set” (2004)
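Each compound was tested at five concentrations against cells in 96-well plates for 48 hours. GI50 marks 50% less growth.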 The source made the active and inactive calls. Cut-off read from the data, not from the text of the source: active = GI50 up to about 1.1 µM and inactive = higher.

Key:
Test in all cases: DTP human tumour cell line panel, 48 h
UACC-257 = system: UACC-257
SK-MEL-28 = system: SK-MEL-28
LOX IMVI = system: LOX IMVI
NCI-H460 = system: NCI-H460
OVCAR-5 = system: OVCAR-5
RXF 393 = system: RXF 393
HCT-15 = system: HCT-15
786-0 = system: 786-0
SR = system: SR
HOP-62 = system: HOP-62
OVCAR-8 = system: OVCAR-8
DU-145 = system: DU-145
MDA-MB-231 = system: MDA-MB-231
EKVX = system: EKVX
COLO 205 = system: COLO 205
NCI-H226 = system: NCI-H226
OVCAR-3 = system: OVCAR-3
IGROV-1 = system: IGROV-1
TK-10 = system: TK-10
RPMI-8226 = system: RPMI-8226

Compound | GI50 (UACC-257) | GI50 (SK-MEL-28) | GI50 (LOX IMVI) | GI50 (NCI-H460) | GI50 (OVCAR-5) | GI50 (RXF 393) | GI50 (HCT-15) | GI50 (786-0) | GI50 (SR) | GI50 (HOP-62) | GI50 (OVCAR-8) | GI50 (DU-145) | GI50 (MDA-MB-231) | GI50 (EKVX) | GI50 (COLO 205) | GI50 (NCI-H226) | GI50 (OVCAR-3) | GI50 (IGROV-1) | GI50 (TK-10) | GI50 (RPMI-8226)
CN(Cc1ccccc1)C(=S)S [SODIUM BENZYL(METHYL)CARBAMODITHIOATE] | 53.2 µM (inactive) | 69.2 µM (inactive) | 27.9 µM (inactive) | 40.1 µM (inactive) | 35.9 µM (inactive) | 54.5 µM (inactive) | 34 µM | 19.2 µM (inactive) | 20.6 µM (inactive) | 43.2 µM (inactive) | 33 µM (inactive) | 53.5 µM (inactive) | 88.5 µM (inactive) | 47 µM (inactive) | 57.3 µM (inactive) | 98.6 µM (inactive) | 32 µM (inactive) | 52.2 µM (inactive) | – | –
Cc1ccc2ccccc2c1CC1S(=O)(=O)OCCOS1(=O)=O | 18.2 µM (inactive) | 16 µM (inactive) | 7.94 µM (inactive) | 9.57 µM (inactive) | 11.9 µM (inactive) | – | 18.2 µM | 16.4 µM (inactive) | 7.64 µM (inactive) | 12.6 µM (inactive) | 14.5 µM (inactive) | 11.9 µM (inactive) | 13.6 µM (inactive) | 16.2 µM (inactive) | 2.43 µM (inactive) | – | 6.89 µM (inactive) | – | 16.6 µM (inactive) | 11.4 µM (inactive)
COc1ccc(NC(=O)C(=O)Cc2nc3ccc(C(=O)c4ccccc4)cc3nc2O)c([N+](=O)[O-])c1 | 22.6 µM (inactive) | 25.8 µM (inactive) | 25.2 µM (inactive) | 32.1 µM (inactive) | > 100 µM (inactive) | 23.1 µM (inactive) | 34 µM | 39.1 µM (inactive) | 18.3 µM (inactive) | 34.6 µM (inactive) | 18.8 µM (inactive) | 27.5 µM (inactive) | 23 µM (inactive) | 28.3 µM (inactive) | 16 µM (inactive) | 11.5 µM (inactive) | 22.5 µM (inactive) | 17.6 µM (inactive) | 24.9 µM (inactive) | –
CCOC(=O)C1C(c2ccc3c(c2)OCO3)c2c(n[nH]c2O)CC1(C)O (stereo unspecified) | > 100 µM (inactive) | > 100 µM (inactive) | > 100 µM (inactive) | > 100 µM (inactive) | > 100 µM (inactive) | – | > 100 µM | > 100 µM (inactive) | > 100 µM (inactive) | > 100 µM (inactive) | > 100 µM (inactive) | > 100 µM (inactive) | > 100 µM (inactive) | > 100 µM (inactive) | > 100 µM (inactive) | – | > 100 µM (inactive) | > 100 µM (inactive) | > 100 µM (inactive) | > 100 µM (inactive)
O=C1c2ccccc2-c2c1c1ccccc1c(=O)n2Cc1ccccc1 | 79.4 µM (inactive) | > 100 µM (inactive) | > 100 µM (inactive) | – | > 100 µM (inactive) | – | > 100 µM | 28.6 µM (inactive) | > 100 µM (inactive) | 38.6 µM (inactive) | > 100 µM (inactive) | 81.5 µM (inactive) | 50.1 µM (inactive) | > 100 µM (inactive) | > 100 µM (inactive) | > 100 µM (inactive) | > 100 µM (inactive) | 64.4 µM (inactive) | 40.7 µM (inactive) | > 100 µM (inactive)
C=C1CN=C(Nc2ccc(F)cc2F)S1 | > 100 µM (inactive) | > 100 µM (inactive) | 18.9 µM (inactive) | > 100 µM (inactive) | > 100 µM (inactive) | – | > 100 µM | > 100 µM (inactive) | 36.8 µM (inactive) | > 100 µM (inactive) | > 100 µM (inactive) | > 100 µM (inactive) | > 100 µM (inactive) | > 100 µM (inactive) | > 100 µM (inactive) | – | – | > 100 µM (inactive) | > 100 µM (inactive) | 49.7 µM (inactive)
COC(=O)c1cc(O)c(O)c(O)c1-c1c(O)c(O)c(O)c(SC[C@H](NC(=O)OCc2ccccc2)C(=O)OCc2ccccc2)c1C(=O)OC | 32.8 µM (inactive) | 30.1 µM (inactive) | 17.9 µM (inactive) | 29.2 µM (inactive) | 33.9 µM (inactive) | 20.2 µM (inactive) | 27.5 µM | 18.6 µM (inactive) | – | 35.1 µM (inactive) | 21.2 µM (inactive) | 39.2 µM (inactive) | 16.7 µM (inactive) | 19.7 µM (inactive) | 22.6 µM (inactive) | 21.2 µM (inactive) | 34 µM (inactive) | 28.8 µM (inactive) | 67.9 µM (inactive) | 21.8 µM (inactive)
C/C=C/C/C=C/CCC(=O)C1OC1C(N)=O (stereo unspecified) | 17.3 µM (inactive) | 15.4 µM (inactive) | 13.2 µM (inactive) | 12.8 µM (inactive) | 18.8 µM (inactive) | 9.4 µM (inactive) | 12.6 µM | 13.1 µM (inactive) | 10.6 µM (inactive) | 2.52 µM (inactive) | 13.3 µM (inactive) | 17.5 µM (inactive) | 16.5 µM (inactive) | 18.9 µM (inactive) | 18.9 µM (inactive) | – | 18.7 µM (inactive) | 16.4 µM (inactive) | 13.2 µM (inactive) | –
O=C1C(O)=C(Cl)C(=O)c2c(O)ccc(O)c21 | > 100 µM (inactive) | > 100 µM (inactive) | – | > 100 µM (inactive) | > 100 µM (inactive) | > 100 µM (inactive) | > 100 µM | > 100 µM (inactive) | > 100 µM (inactive) | > 100 µM (inactive) | > 100 µM (inactive) | > 100 µM (inactive) | > 100 µM (inactive) | > 100 µM (inactive) | > 100 µM (inactive) | – | > 100 µM (inactive) | > 100 µM (inactive) | > 100 µM (inactive) | > 100 µM (inactive)
COc1ccc2c(c1)CC[C@@H]1C2CC[C@]2(C)C(=O)N(C)C(=O)CC12 (stereo partly specified) | > 100 µM (inactive) | > 100 µM (inactive) | – | > 100 µM (inactive) | > 100 µM (inactive) | 38.1 µM (inactive) | – | 50.1 µM (inactive) | 13.9 µM (inactive) | 38.9 µM (inactive) | > 100 µM (inactive) | > 100 µM (inactive) | > 100 µM (inactive) | > 100 µM (inactive) | > 100 µM (inactive) | > 100 µM (inactive) | > 100 µM (inactive) | > 100 µM (inactive) | > 100 µM (inactive) | –
C[C@]12CC[C@H](O)CC1=CC[C@@H]1C2CC[C@]2(C)c3n[nH]nc3CC12 (stereo partly specified) | > 100 µM (inactive) | > 100 µM (inactive) | – | > 100 µM (inactive) | > 100 µM (inactive) | > 100 µM (inactive) | – | > 100 µM (inactive) | 25.9 µM (inactive) | > 100 µM (inactive) | > 100 µM (inactive) | > 100 µM (inactive) | > 100 µM (inactive) | 52.7 µM (inactive) | > 100 µM (inactive) | > 100 µM (inactive) | > 100 µM (inactive) | > 100 µM (inactive) | > 100 µM (inactive) | –
COc1ccc(/C(=N/N=c2\[nH]c3ccccc3n2Cc2ccccc2)C(=O)O)cc1 | 29 µM (inactive) | 23.8 µM (inactive) | 6.89 µM (inactive) | 4.8 µM (inactive) | 48.5 µM (inactive) | – | 12.6 µM | 5.12 µM (inactive) | 3.29 µM (inactive) | 10.5 µM (inactive) | 21.8 µM (inactive) | 30.7 µM (inactive) | 23.3 µM (inactive) | 31.3 µM (inactive) | 4.03 µM (inactive) | 20.2 µM (inactive) | 2.52 µM (inactive) | 6.92 µM (inactive) | 35.3 µM (inactive) | 10 µM (inactive)
CC(C)=CC1C(COC(=O)c2ccccc2Cl)C1(C)C (stereo unspecified) | 48.9 µM (inactive) | > 100 µM (inactive) | 20.2 µM (inactive) | 35.7 µM (inactive) | 38.3 µM (inactive) | 24.9 µM (inactive) | 25.6 µM | 33.2 µM (inactive) | 42.2 µM (inactive) | 38.4 µM (inactive) | 53.1 µM (inactive) | 32.8 µM (inactive) | 49.7 µM (inactive) | 25.8 µM (inactive) | – | 30.4 µM (inactive) | 26.1 µM (inactive) | 23.5 µM (inactive) | > 100 µM (inactive) | –
CC1=C(C(=O)NNC(=O)c2ccccc2O)CC(C(=O)NNC(=O)c2ccccc2O)=C(C)N1 | 27.2 µM (inactive) | > 77.3 µM (inactive) | 2.58 µM (inactive) | 0.533 µM (active) | 22.6 µM (inactive) | – | 0.649 µM | 3.13 µM (inactive) | 0.64 µM (active) | 5.46 µM (inactive) | 0.845 µM (active) | 0.566 µM (active) | 5 µM (inactive) | 7.78 µM (inactive) | 16.9 µM (inactive) | 1.79 µM (inactive) | 1.55 µM (inactive) | 0.302 µM (active) | > 47.3 µM (inactive) | 0.752 µM (active)
COc1ccc(C2(O)c3ccccc3C(=O)N(C)C2(O)c2ccc(OC)cc2)cc1 (stereo unspecified) | 61.9 µM (inactive) | 25.6 µM (inactive) | 30.1 µM (inactive) | 35.2 µM (inactive) | > 100 µM (inactive) | > 100 µM (inactive) | 40.4 µM | 81.5 µM (inactive) | 36.3 µM (inactive) | 70.8 µM (inactive) | 81.7 µM (inactive) | > 100 µM (inactive) | > 100 µM (inactive) | 86.7 µM (inactive) | 22.6 µM (inactive) | – | 57 µM (inactive) | 28.6 µM (inactive) | 59.4 µM (inactive) | > 100 µM (inactive)
